Laboratory results: ChEMBL document CHEMBL1777675, “N-hydroxy-N'-aminoguanidines as anti-cancer lead molecule: QSAR, synthesis and biological evaluation” (Bioorg Med Chem Lett, 2011)

Columns and labels:
HL-60 = experiment: Anticancer activity against human HL60 cells; assay type: functional, cell-based
[1] = Cytotoxicity against human HeLa cells; assay type: cell-based
[2] = Cytotoxicity against african green monkey Vero cells; assay type: cell-based; settings: chlorocebus sabaeus
L1210 = experiment: Cytotoxicity against mouse L1210 cells after 65 hrs by MTS/PES microculture tetrazolium assay; assay type: functional, cell-based; settings: L1210, 65 h

IC50 (HL-60)	Structure (SMILES)	CC50 [1]	CC50 [2]	IC50 (L1210)
95 µM	N/C(=N\O)N/N=C/c1ccccc1O	> 100 µM	> 100 µM	
> 100 µM	COc1ccccc1/C=N/N=C(\N)NO	> 100 µM	> 100 µM	
> 100 µM	COc1ccc(/C=N/NC(=N)NO)cc1O	> 100 µM	> 100 µM	
60 µM	N=C(NO)N/N=C/c1ccccc1Cl	> 100 µM	> 100 µM	
	N=C(NN)NO			126 µM
	N/C(=N\O)N/N=C/c1cccs1			34.1 µM
	CS(=O)(=O)Oc1ccc(/C=N/NC(=N)NO)cc1			14.8 µM
11 µM	N=C(NO)N/N=C/c1c2ccccc2cc2ccccc12	> 100 µM	> 100 µM	
	CCCCCCOc1ccc(/C=N/NC(=N)NO)cc1			7.8 µM
	O=C(NO)N/N=C/C1CCCCC1			21.2 µM
	N=C(NO)N/N=C1\C(=O)Nc2ccccc21			48.4 µM
> 100 µM	N=C(NO)N/N=C/c1ccc(Cl)cc1	> 100 µM	> 100 µM	
> 100 µM	N=C(NO)N/N=C/c1ccco1	> 100 µM	> 100 µM	
> 100 µM	COc1ccc(/C=N/NC(=N)NO)cc1	> 100 µM	> 100 µM	
> 100 µM	Cc1ccccc1/C=N/NC(=N)NO	> 100 µM	> 100 µM	
	O=C(NO)N/N=C/C1CC2C=CC1C2 (configuration not stated)			10.6 µM

IC50 (HL-60)	Structure (SMILES)	CC50 [1]	CC50 [2]	IC50 (L1210)
	Cc1cccc(/C=N/N=C(\N)NO)n1			42.1 µM
	Cc1ccn(C)c1/C=N/NC(=N)NO			2.7 µM
	CCCCOc1ccc(/C=N/NC(=N)NO)cc1			8.53 µM
	N/C(=N\O)N/N=C/c1cccc(I)c1			12.5 µM
	N/C(=N\O)N/N=C/c1cccc(C(F)(F)F)c1			15.1 µM
	N/C(=N/N=C/c1ccccn1)NO			10.9 µM
67 µM	Cc1ccc(/C=N/NC(=N)NO)cc1	> 100 µM	> 100 µM	
> 100 µM	CN(C)c1ccc(/C=N/NC(=N)NO)cc1	> 100 µM	> 100 µM	
62 µM	N=C(NO)N/N=C/c1ccccc1	> 100 µM	> 100 µM	
	COc1cccc(/C=N/NC(=N)NO)c1			16 µM
> 100 µM	N=C(NO)N/N=C/c1ccc(O)cc1	> 100 µM	> 100 µM	
	O=C(NO)N/N=C\C1=CCc2c(Cl)cc(Cl)cc2C1=O			28.2 µM
	Cc1ccsc1/C=N/N=C(/N)NO			33.2 µM
	CC(C)c1ccc2c(c1)C(=O)C(/C=N\NC(=O)NO)=CC2			32.2 µM
	N=C(NO)N/N=C/c1cc2ccccc2cn1			3.3 µM
